The text below walks through data of ChEMBL document CHEMBL1139700 (Bioorg Med Chem Lett, 2006).

The target of test [1] is Neuronal acetylcholine receptor subunit alpha-7 (Rattus norvegicus, UniProt Q05941). The test can be described thus: Displacement of [3H]alpha-Bungarotoxin from alpha-7 nAChR in rat brain cortex membranes. The format is cell membranes, Membrane.
Test [2] addresses Neuronal acetylcholine receptor; alpha4/beta2 (Rattus norvegicus, UniProt P09483+P12390). The test is described as follows: Displacement of [3H]epibatidine from alpha-4-beta-2 nAChR in rat brain cortex membrane. The format is cell membranes.
Test [3] addresses T1, Adrenergic receptor alpha-2 (Rattus norvegicus, UniProt P22086+P19328+P22909).
T1 sequence (P22086 whole entry): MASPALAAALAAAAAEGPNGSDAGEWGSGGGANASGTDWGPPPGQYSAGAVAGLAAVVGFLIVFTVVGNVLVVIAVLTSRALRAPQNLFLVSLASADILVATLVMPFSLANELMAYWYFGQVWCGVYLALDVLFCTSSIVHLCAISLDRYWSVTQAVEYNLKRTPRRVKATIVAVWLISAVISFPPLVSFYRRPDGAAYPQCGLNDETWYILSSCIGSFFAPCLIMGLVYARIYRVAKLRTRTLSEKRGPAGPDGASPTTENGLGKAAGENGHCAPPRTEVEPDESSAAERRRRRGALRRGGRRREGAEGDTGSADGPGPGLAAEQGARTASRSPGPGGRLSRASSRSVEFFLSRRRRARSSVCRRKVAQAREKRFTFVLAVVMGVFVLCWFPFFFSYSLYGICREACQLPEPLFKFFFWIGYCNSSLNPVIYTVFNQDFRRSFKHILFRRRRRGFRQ
T1 sequence (P19328 whole entry): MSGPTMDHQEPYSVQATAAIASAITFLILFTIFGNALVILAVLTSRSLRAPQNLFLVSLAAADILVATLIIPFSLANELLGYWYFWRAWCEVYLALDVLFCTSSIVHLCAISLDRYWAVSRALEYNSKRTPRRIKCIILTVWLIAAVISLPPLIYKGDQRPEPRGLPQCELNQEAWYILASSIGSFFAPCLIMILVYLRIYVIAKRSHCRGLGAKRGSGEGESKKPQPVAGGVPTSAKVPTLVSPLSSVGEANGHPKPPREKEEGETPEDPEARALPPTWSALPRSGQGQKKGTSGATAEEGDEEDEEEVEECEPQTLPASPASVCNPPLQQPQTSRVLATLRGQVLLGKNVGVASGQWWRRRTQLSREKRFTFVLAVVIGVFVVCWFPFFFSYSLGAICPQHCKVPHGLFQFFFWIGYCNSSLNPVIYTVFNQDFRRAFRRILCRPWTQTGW
T1 sequence (P22909 whole entry): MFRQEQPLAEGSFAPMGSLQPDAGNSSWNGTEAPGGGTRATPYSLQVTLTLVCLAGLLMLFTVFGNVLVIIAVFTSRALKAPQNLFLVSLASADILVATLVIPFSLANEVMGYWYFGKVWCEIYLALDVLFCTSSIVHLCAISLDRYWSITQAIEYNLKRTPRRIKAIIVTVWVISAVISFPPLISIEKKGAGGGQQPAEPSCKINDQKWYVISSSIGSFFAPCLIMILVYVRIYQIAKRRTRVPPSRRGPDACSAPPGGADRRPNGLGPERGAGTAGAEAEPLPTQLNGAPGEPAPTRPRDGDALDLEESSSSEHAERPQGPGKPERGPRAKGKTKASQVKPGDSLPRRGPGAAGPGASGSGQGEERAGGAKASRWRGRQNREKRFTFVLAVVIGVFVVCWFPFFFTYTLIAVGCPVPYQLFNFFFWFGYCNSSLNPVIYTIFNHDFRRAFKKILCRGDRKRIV
The test can be described thus: Displacement of [3H]RS 79948-197 from rat cortex adrenergic alpha-2 receptor. A general note: Loss of bound radioactivity is the signal in a displacement assay; it reports binding, not function.

Sequence of Neuronal acetylcholine receptor subunit alpha-7 (Q05941 whole entry): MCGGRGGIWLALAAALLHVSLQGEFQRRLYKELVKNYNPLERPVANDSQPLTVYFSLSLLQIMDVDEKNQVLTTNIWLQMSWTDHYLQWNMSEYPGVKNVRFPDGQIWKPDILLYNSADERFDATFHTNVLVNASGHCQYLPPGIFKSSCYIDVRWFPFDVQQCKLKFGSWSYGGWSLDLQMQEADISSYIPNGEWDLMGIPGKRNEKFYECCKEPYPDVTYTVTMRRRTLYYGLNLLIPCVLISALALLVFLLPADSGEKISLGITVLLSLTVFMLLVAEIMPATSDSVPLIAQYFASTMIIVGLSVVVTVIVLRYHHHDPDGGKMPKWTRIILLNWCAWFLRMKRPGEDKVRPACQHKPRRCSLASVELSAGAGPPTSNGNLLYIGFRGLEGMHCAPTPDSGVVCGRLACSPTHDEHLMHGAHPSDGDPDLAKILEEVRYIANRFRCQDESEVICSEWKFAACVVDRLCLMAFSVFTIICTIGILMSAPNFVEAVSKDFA
Sequence of Neuronal acetylcholine receptor; alpha4/beta2 (P09483 whole entry): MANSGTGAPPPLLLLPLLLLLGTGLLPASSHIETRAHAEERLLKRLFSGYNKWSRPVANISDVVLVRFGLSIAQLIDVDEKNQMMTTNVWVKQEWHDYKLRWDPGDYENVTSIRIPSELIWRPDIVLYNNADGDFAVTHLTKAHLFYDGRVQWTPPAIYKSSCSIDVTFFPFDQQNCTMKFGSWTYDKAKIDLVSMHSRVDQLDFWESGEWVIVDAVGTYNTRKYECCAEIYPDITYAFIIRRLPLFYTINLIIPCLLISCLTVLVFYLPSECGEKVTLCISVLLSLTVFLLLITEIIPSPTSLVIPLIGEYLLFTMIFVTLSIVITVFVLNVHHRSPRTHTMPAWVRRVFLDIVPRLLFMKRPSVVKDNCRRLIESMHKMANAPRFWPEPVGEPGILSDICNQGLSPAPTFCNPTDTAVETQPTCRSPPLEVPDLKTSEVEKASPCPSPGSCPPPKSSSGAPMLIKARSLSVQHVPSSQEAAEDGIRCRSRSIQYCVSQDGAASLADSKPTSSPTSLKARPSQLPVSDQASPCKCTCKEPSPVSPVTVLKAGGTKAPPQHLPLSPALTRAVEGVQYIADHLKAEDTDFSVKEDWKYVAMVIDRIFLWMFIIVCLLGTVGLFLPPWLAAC
Sequence of Neuronal acetylcholine receptor; alpha4/beta2 (P12390 whole entry): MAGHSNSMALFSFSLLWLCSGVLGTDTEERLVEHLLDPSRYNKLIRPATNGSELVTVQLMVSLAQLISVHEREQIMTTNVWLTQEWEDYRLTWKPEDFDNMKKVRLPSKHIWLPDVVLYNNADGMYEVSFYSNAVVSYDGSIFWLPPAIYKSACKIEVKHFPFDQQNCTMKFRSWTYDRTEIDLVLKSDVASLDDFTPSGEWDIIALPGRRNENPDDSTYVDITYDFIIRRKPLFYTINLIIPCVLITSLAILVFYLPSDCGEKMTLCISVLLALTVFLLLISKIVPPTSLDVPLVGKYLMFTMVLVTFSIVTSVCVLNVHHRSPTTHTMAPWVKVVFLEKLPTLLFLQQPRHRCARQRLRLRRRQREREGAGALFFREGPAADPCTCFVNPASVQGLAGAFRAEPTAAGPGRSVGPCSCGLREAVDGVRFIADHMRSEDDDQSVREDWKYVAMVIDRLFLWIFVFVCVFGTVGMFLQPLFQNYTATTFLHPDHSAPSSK

As to `CN1CCC[C@H]1[C@H]1CNC(=O)O1`, the Ki (commonly the dissociation constant of the complex between target and ligand, obtained from inhibition or displacement) in test [1] came to 117 µM; in test [2] it was 62 µM.

With `CN1CCC[C@@H]1[C@@H]1CNC(=O)O1`, the Ki in test [1] worked out at 338 µM; in test [2], 80 µM.

`CN1CCC[C@H]1[C@@H]1COc2ccccc2O1.Cl`: the inhibition constant Ki in test [1] is 12 µM; in test [2], 0.62 µM; in test [3], 0.77 µM.

Turning to `CN1CCC[C@@H]1[C@H]1COc2ccccc2O1.Cl`, the inhibition constant (Ki) in test [1] came out at 45 µM; in test [2], 2.57 µM; in test [3] it was 0.47 µM.
